Data reported in patent US10980769B2, “Tiglien-3-one derivatives” (QBIOTICS PTY LTD, priority 2005, dated 2021).
“Also recorded” adds a separate entry of the source.

How the values were obtained:
human prostate DU145 = assay: Growth inhibition of cultured cells; type: cell-based
Method: (§1) Briefly, a range of tumour cells including mouse melanoma, human melanoma, mouse squamous cell carcinoma, human breast, human colon, human leukemia and human lung and normal human cells including normal human fibroblasts were seeded at 2-5,000 per microtitre well (96-well plate) in 10% FCS-RPMI 1640 culture medium, treated, and allowed to grow until the controls were nearly confluent (5-6 days). The wells were then washed twice with PBS, fix with ethanol for a minimum of 5 minutes and washed with water. SRB solution (50 μL of 0.4% in 1% acetic acid) was added and left at room temperature for a minimum of 15 minutes. The plate was washed rapidly with tap water and then twice with 1% acetic acid. After addition of 100 μL/well of 10 mM Tris base (unbuffered, pH>9), plates were left for a minimum of 5 minutes, then the absorbance was read at 564 nm on the ELISA reader, with a 3 second prior shaking. After subtraction of a blank (wells with no cells, absorbance typically about 0.04), growth inhibition was calculated as % of the untreated control and plotted against dose.
(§2) Briefly, a suspension of a range of tumour cells including mouse melanoma, human melanoma, mouse squamous cell carcinoma, human breast, human colon, human leukemia and human lung and normal human cells including normal human fibroblasts were seeded into round-bottom microtitre plates in 10% FCS-RPMI 1640 culture medium, treated and allowed to grow for 5-6 days. To measure cell growth, 20 μL of a combined MTS/PMS solution (Promega Cell ProliferationAssay Kit Cat #G5430) was added to each well of the 96 well assay plate. After 1-4 hours the plates were placed in the ELISA plate reader and the absorbance read at 490 nm. After subtraction of a blank (wells with no cells, absorbance typically about 0.4), growth inhibition was calculated as % of the untreated control and plotted against dose.

human melanoma MM418c5 = assay: Growth inhibition of cultured cells; type: cell-based
Method: as §1, §2

PKC = PKC activation in cultured tumour cells (scattering and growth inhibition of MCF7); type: cell-based, human; settings: defined by scattering and growth inhibition of MCF7 breast cancer cells
Giardia spp. = assay: TriTOX (Gi) anti-protozoan bioassay; type: cell-based
Method: is a microtitre plate based chromogenic bioassay for the screening of anti-protozoan activity of pathogenic, anaerobic/microaerophilic protozoans for example Giardia spp. and Trichomonas spp. The bioassays are run under anaerobic conditions and features species specific chromogens. The minimum inhibitory concentrations (approximate LD99) are determined by the following method: stock solutions of the unknowns are serially diluted ½ to give 12 concentrations over a 2,048-fold range. Aliquots of each concentration(s) are applied to the wells of 96-well microtitre plates and diluted with media. […] The lowest concentration at which the compound is active is noted as the minimum inhibitory concentration (MIC). Additionally, microscopic inspection is carried out to identify any patterns of morphological change that may be consistent with a type of toxicity and therefore mode of action. Giardia spp. was utilized for this assay.

Bacillus subtilis = assay: ProTOX (Bs) antibacterial bioassay; type: cell-based
Description: ProTOX, (alternatively referred to herein as Bs) is an antibacterial bioassay, broadly applicable to most aerobic and anaerobic bacteria. The bioassay features a solid phase agar base into which the test compound has been incorporated together with a chromogen. As the bacteria multiply in the well, the chromogen is metabolised from blue in a two-step process to a colourless compound. Compounds with potent bactericidal activity inhibit bacterial metabolism of the chromogen while bacteriostatic compounds induce limited metabolism as indicated by an intermediate pink colour. ProTOX is broadly applicable to a range of gram-positive and gram-negative bacteria under aerobic and microaerophilic conditions. ProTOX assays were carried out using Bacillus subtilis.
Briefly, in ProTOX, the bacteria (24 hour broth) were applied to the surface of an agar matrix containing the test sample and allowed to grow for 48 hours. The assay was monitored at 24 and 48 hours and the active wells noted. Known antibiotics yield consistent colour transitions which are concentration and time dependent. These patterns provide an important guide to the early recognition of interesting characteristics.

Haemonchus contortus = assay: NemaTOX (Ne) anthelmintic larval development bioassay
Method: NemaTOX (alternatively referred to herein as Ne) is an anthelmintic bioassay, applicable to all parasitic nematodes with free-living life cycle stages, and can be used as a screen to detect activity and define the species spectrum of compounds against parasitic nematodes and examine the impact of pre-existing resistance to other anthelmintic classes on potency. Haemonchus contortus was utilised for this assay.
The effect on larval development was determined in this assay by the method described by Gill et al. (1995) Int. J. Parasitol. 25: 463-470. Briefly, in this assay nematode eggs were applied to the surface of an agar matrix containing the test sample and allowed to develop through to the L3, infective stage (6 days). At this time the stage of larval development reached and any unusual features (deformity, paralysis, toxicity) were noted by microscopic examination.

[1] = tested on: NS1 murine myeloma cell line; assay: CyTOX (Cy) chromogenic cytotoxicity bioassay; type: cell-based; settings: for Cy LD99: weight of chemical in last well with activity, real value may be lower
Description: CyTOX (alternatively referred to herein as Cy) is a microtitre plate bioassay use to identify potential antitumour actives. CyTOX is a chromogenic bioassay with broad application to a wide range of tumour and non-tumour cell lines.
CyTOX features a liquid media into which the test compound has been incorporated together with a novel chromogen. As the cells grow and divide the chromogen is metabolised from purple in a single step process to a colourless metabolite. CyTOX was undertaken using NS1 murine myeloma cell line as a guide to mammalian cell toxicity.
Briefly, in CyTOX the cells were applied to the media containing the test chemical and allowed to grow for 72 hours. The assay was monitored at 24, 48 and 72 hours and the active wells identified.

fly eggs = assay: DipteraTOX fly development bioassay; parameters: key: A value of A in DipG, Dip P or Dip H represents very active; a value of P represents active; settings: 250 μg per mL in agar
Method: DipteraTOX is referred to herein as DipG, DipP and DipH. DipG represents no grazing of larva. DipP represents no pupae formation and Dip H represents no hatching of flies. A value of A in DipG, Dip P or Dip H represents very active and a value of P represents active. In DipteraTox the fly eggs were applied to the surface of an agar matrix containing 250 μg per mL of the test chemical and allowed to hatch, develop and pupate for a period up of two weeks. The assay was monitored at two discrete times to determine the extent of grazing of the agar matrix at Week 1 and the presence of adult flies at Week 2.

Trichophyton rubrum = assay: MycoTOX (Tr) antifungal bioassay; type: cell-based
Method: MycoTOX (alternatively referred to herein as Tr) is a non-chromogenic bioassay used to detect activity against filamentous fungal pathogens of plants and animals. The bioassay features a solid phase agar base into which the test compound has been incorporated. As the growth patterns of filamentous fungi are readily apparent on the agar surface the extent of mycelial growth, sporulation (if relevant to the species under investigation) and colour changes with maturation are measured.
MycoTOX, involves a fungus (spore suspension or mycelial fragments) being applied to the surface of an agar matrix containing the test chemical and allowed to grow for a period of up to a week (depending on species). The assay is monitored at two discrete times to identify key development phases in the life cycle (for example mycelial growth and extent of sporulation) and the active wells noted. The monitoring times are dependent on the fungal species under investigation.
The MycoTOX assays were carried out using Trichophyton rubrum. The MycoTOX test is alternatively referred to as Tr to indicate the use of Trichophyton rubrum.

human breast MCF-7 = assay: Growth inhibition of cultured cells; type: cell-based; settings: human breast MCF-7
Method: as §1, §2
(§3) For growth inhibition assays, cells (2000-5000/well) were seeded in 96-well plates in duplicate, treated with drug next day and allowed to grow for a further 5-6 days. The plates were then washed in PBS (phosphate buffered saline, pH 7.2), fixed with ethanol and stained by addition of 50 μL 0.4% SRB (sulforhodamine) in 1% acetic acid. The plate was left at room temperature for a minimum of 15 minutes, then washed rapidly with tap water and then twice with 1% acetic acid. After addition of 100 μL/well of 10 mM Tris base (unbuffered, pH>9), plates were left for a minimum of 5 minutes, then the absorbance was read at 564 nm on the ELISA reader, with a 3 second prior shaking. After subtraction of a blank (wells with no cells, typically about 0.04), growth inhibition was calculated as % of the untreated control and plotted against dose.

[2] = tested on: normal human fibroblasts (NFF); assay: Growth inhibition of cultured cells; type: cell-based
Method: as §1, §2, §3

human leukemia K562 = assay: Growth inhibition of cultured cells; type: cell-based
Method: as §1, §2, §3

MCF-7 = assay: Cell scattering of cultured cells; type: cell-based, human
[3] = tested on: K562 leukemia, MCF-7 breast cancer, Colo-205 colon cancer and D04 and SKMel-5 melanoma; assay: In vitro growth inhibition profile, sensitive versus other cell lines; type: cell-based, human
Method: In addition, scattering of MCF-7 and HT-29 colon tumour cells was observed, typical of PKC activators. […] Additionally, given their similarity in structure, EBI-47, EBI-59 and EBI-61 are also considered to be protein kinase C activators.
as §3, with “dose. […]” for “dose.”

MM96L cell line = assay: Changes in morphology of cultured cells; type: cell-based, human
[4] = weight of chemical in last well with activity, real value may be lower

| Compound | Concentration of EB548.LA4.61-29/32 At which growth inhibition was observed (human prostate DU145) | Concentration of EB548.LA4.61-29/32 At which growth inhibition was observed (human melanoma MM418c5) | PKC activity (PKC) | Gi Titre (Giardia spp.) | Gi LD99 (Giardia spp.; [4]) | Bs Titre (Bacillus subtilis) | Ne Titre (Haemonchus contortus) | Ne LD99 (Haemonchus contortus; [4]) | Cy Titre [1] | Cy LD99 [1] | DipH (no hatching of flies) (fly eggs) | Tr Titre (Trichophyton rubrum) | Concentration of EB548.LA4.61-29/32 At which growth inhibition was observed (human breast MCF-7) | Concentration of EB548.LA4.61-29/32 At which growth inhibition was observed [2] | Concentration of EB548.LA4.61-29/32 At which growth inhibition was observed (human leukemia K562) | DipP (no pupae formation) (fly eggs) | scattering of MCF-7 cells (MCF-7) | growth-inhibiting doses in sensitive cell lines lower than for other human tumour cell lines and normal human fibroblasts [3] | change in morphology of MM96L cells (MM96L cell line) |
| --- | --- | --- | --- | --- | --- | --- | --- | --- | --- | --- | --- | --- | --- | --- | --- | --- | --- | --- | --- |
| CCC(C)C(=O)OC1C(C)C2(O)C(C3OC3(CO)C(O)C3(O)C(=O)C(C)=CC32)C2C(C)(C)C12OC(=O)C(C)CC (centres unmarked) [EBI-47, 12,13-di-(2-methylbutanoyl)-6,7-epoxy-4,5,9,12,13,20-hexahydroxy-tigliaen-3-one] | 10 µg/mL | 0.03 µg/mL | yes | 2 | 31 µg/mL | 0/— | 2 | 31 µg/mL | 4 | 16 µg/mL | P | 0/— | 0.03 µg/mL | None observed at 10 μg/mL | 0.1 µg/mL |  |  |  |  |
| CCCCC/C=C/C=C/C=C/C(=O)OC1C(C)C2(O)C(C3OC3(CO)C(O)C3(O)C(=O)C(C)=CC32)C2C(C)(C)C12OC(=O)C(C)CC (centres unmarked) [EBI-59, 12-(dodeca-2,4,6-trienoyl)-13-(2-methylbutanoyl)-6,7-epoxy-4,5,9,12,13,20-hexahydroxy-1-tigliaen-3-one] |  |  | yes |  |  | 0/— | 0/— |  | 16 | 3.9 µg/mL | A/A | 0/— |  |  |  | A/A |  |  |  |
| tetradecanoyl phorbol acetate [TPA, reference compound] |  |  |  |  |  |  |  |  |  |  |  |  |  |  |  |  | scattering | approximately 100 fold | characteristic change to bipolar morphology; also recorded: extreme bipolar morphology |
